According to the NIST ThermoML archive (doi:10.1021/je900570e):

Tests used:
[1] = Liquid; for viscosity / speed of sound: 101 kPa; for viscosity: Capillary tube (Ostwald / Ubbelohde) method; for mass density: 101.33 kPa, Vibrating tube method; for speed of sound: Frequency=2 MHz, Pulse-echo method
[2] = xn = mol fraction of the nth substance listed; settings: Liquid; for viscosity / speed of sound: 101 kPa; for viscosity: Capillary tube (Ostwald / Ubbelohde) method; for speed of sound: Frequency=2 MHz, Pulse-echo method; for mass density: 101.33 kPa, Vibrating tube method

ClCCCl [1,2-dichloroethane]
[1]
Settings | mass density [kg/m3] | speed of sound [m/s] | viscosity [mPa·s]
298.15 K | 1246.7 | – | 0.776
303.15 K | 1238.7 | 1174 | 0.7237
308.15 K | 1230.5 | 1164.8 | 0.6737
313.15 K | 1223.7 | 1153.5 | 0.6419

ClC(Cl)=C(Cl)Cl [tetrachloroethene] + N#CCc1ccccc1
[2], x2 = 0
Settings | mass density [kg/m3] | speed of sound [m/s] | viscosity [mPa·s]
303.15 K | 1607.2 | 1028 | 0.7971
308.15 K | 1597.9 | 1014 | 0.7657
313.15 K | 1590.6 | 996.6 | 0.7395

ClC(Cl)=C(Cl)Cl [tetrachloroethene]
[1]
Settings | mass density [kg/m3] | speed of sound [m/s] | viscosity [mPa·s]
298.15 K | 1614.8 | – | 0.847
303.15 K | 1607.2 | 1028 | 0.7971
308.15 K | 1597.9 | 1014 | 0.7657
313.15 K | 1590.6 | 996.6 | 0.7395

ClC(Cl)C(Cl)Cl [1,1,2,2-tetrachloroethane] + N#CCc1ccccc1
[2], x2 = 0
Settings | mass density [kg/m3] | speed of sound [m/s] | viscosity [mPa·s]
303.15 K | 1579.6 | 1134.7 | 1.456
308.15 K | 1570.6 | 1115.5 | 1.354
313.15 K | 1563.7 | 1095.5 | 1.261

N#CCc1ccccc1 [benzeneacetonitrile] + ClCC(Cl)Cl
[2], x1 = 1
Settings | mass density [kg/m3] | speed of sound [m/s] | viscosity [mPa·s]
303.15 K | 1008.8 | 1519.2 | 1.761
308.15 K | 1004.1 | 1512.9 | 1.602
313.15 K | 999.5 | 1503.4 | 1.489
